Patent publication US20180178030A1, “PHOTODYNAMIC THERAPEUTIC METHOD FOR TREATING DENTAL INFECTION” (Olighter Co. Ltd., priority 2016, published 2018)

Experiments:
[1] = test system: G (+) bacteria (Streptococcus mutans, Streptococcus sobrinus); test: in vitro bacterial disinfection by photodynamic therapy method (FIG. 8), G (+) bacteria; assay type: cell-based; conditions: photosensitizer plus infrared laser ray 808 nanometers, irradiation about 5 minutes
From the text: (§1) One group assay represents the different bacterial disinfection by using the photodynamic therapy method in vitro with a specific irradiated wavelength of the light, and the other group assay represents the different bacterial disinfection by using the photodynamic therapy method in vitro with a specific compound X and the specific irradiated wavelength of the light.
(§2) The light is infrared laser ray. The specific irradiated wavelength of the infrared laser ray of is 808 nanometers. The specific compound X is a photosensitizer. The photosensitizer is the indocyanine green dye. The period of irradiating the bacteria is about 5 minutes. The bacteria include gram positive (G (+)) bacteria and gram negative (G (−)) bacteria. The G (+) bacteria include a Streptococcus mutans (S. mutans) and a Streptococcus sobrinus (S. sobrinus). The G (−) bacteria include an Aggregatibacter actinomycetemcomitans (A. actinomycetemcomitans), a Fusobacterium nucleatum (F. nucleatum), and a Porphyromonas gingivalis (P. gingivalis).
(§3) Referring to FIG. 8, when the photodynamic therapy method in vitro uses the specific photosensitizer and the specific irradiated wavelength of the light, the G (+) bacterial show the percentage growth rate as zero, and the G (−) bacteria show the percentage growth rate as less than 20%.

[2] = test system: G (−) bacteria (Aggregatibacter actinomycetemcomitans, Fusobacterium nucleatum, Porphyromonas gingivalis); test: in vitro bacterial disinfection by photodynamic therapy method (FIG. 8), G (−) bacteria; assay type: cell-based; conditions: photosensitizer plus infrared laser ray 808 nanometers, irradiation about 5 minutes
From the text: as §1, §2, §3

CC1(C)C(/C=C/C=C/C=C/C=C2\N(CCCCS(=O)(=O)O)c3ccc4ccccc4c3C2(C)C)=[N+](CCCCS(=O)(=O)[O-])c2ccc3ccccc3c21 [specific photosensitizer, indocyanine green]
percentage growth rate of the bacteria [1]: zero | percentage growth rate of the bacteria [2]: less than 20%
